target: interaction between p53 and MDM2 proteins (Homo sapiens, UniProt Q00987); assay: HTRF assay of inhibition of the p53-MDM2 interaction (GST-MDM2 and biotinylated p53 peptide); format: binding; details: recombinant GST-tagged MDM2, biotinylated p53 peptide, 37° C. for 1 h
Protocol: The ability of the compounds to inhibit the interaction between p53 and MDM2 proteins was measured by an HTRF (homogeneous time-resolved fluorescence) assay in which recombinant GST-tagged MDM2 binds to a peptide that resembles the MDM2-interacting region of p53 (Lane et al.). Binding of GST-MDM2 protein and p53-peptide (biotinylated on its N-terminal end) is registered by the FRET (fluorescence resonance energy transfer) between Europium (Eu)-labeled anti-GST antibody and streptavidin-conjugated Allophycocyanin (APC).
Test is performed in black flat-bottom 384-well plates (Costar) in a total volume of 40 uL containing: 90 nM biotinylate peptide, 160 ng/mL GST-MDM2, 20 nM streptavidin-APC (PerkinElmerWallac), 2 nM Eu-labeled anti-GST-antibody (PerkinElmerWallac), 0.2% bovine serum albumin (BSA), 1 mM dithiothreitol (DTT) and 20 mM Tris-borate saline (TBS) buffer as follows: Add 10 uL of GST-MDM2 (640 ng/mL working solution) in reaction buffer to each well. […] Incubate at 37° C. for 1 h. […] If not specified, the reagents were purchased from Sigma Chemical Co.

Chain of interaction between p53 and MDM2 proteins (Q00987 whole entry): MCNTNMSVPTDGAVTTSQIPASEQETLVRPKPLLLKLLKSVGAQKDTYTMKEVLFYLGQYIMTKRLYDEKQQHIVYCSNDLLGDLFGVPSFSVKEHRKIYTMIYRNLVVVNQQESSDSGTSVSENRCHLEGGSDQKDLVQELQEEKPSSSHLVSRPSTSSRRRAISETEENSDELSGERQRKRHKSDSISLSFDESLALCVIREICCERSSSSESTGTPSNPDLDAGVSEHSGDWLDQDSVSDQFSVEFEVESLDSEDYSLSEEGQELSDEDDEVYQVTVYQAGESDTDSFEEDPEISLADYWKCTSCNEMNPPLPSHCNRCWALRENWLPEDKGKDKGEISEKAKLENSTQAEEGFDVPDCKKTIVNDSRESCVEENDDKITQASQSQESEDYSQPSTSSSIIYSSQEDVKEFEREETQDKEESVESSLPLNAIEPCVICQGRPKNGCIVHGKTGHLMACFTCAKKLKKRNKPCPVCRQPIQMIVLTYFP

Compared with `COc1ccc(C2=N[C@@](C)(c3ccc(Cl)cc3)[C@@H](c3ccc(Cl)cc3)N2C(=O)N2CCN(C(C)=O)CC2)c(OC(C)C)c1` (racemic) [Example 190, rac-1-{4-[(4S*,5R*)-4,5-Bis-(4-chloro-phenyl)-2-(2-isopropoxy-4-methoxy-phenyl)-4-methyl-4,5-dihydro-imidazole-1-carbonyl]-piperazin-1-yl}-ethanone], `CCOc1cc(C(C)(C)C)ccc1C1=N[C@@](C)(c2ccc(Cl)cc2)[C@@H](c2ccc(Cl)cc2)N1C(=O)N1CCN(C(C)=O)CC1` [Example 177, 1-{4-[(4S,5R)-2-(4-tert-Butyl-2-ethoxy-phenyl)-4,5-bis-(4-chloro-phenyl)-4-methyl-4,5-dihydro-imidazole-1-carbonyl]-piperazin-1-yl}-ethanone] is 2.2-fold higher in IC50: 48 nM for the first, 107 nM for the second.

For `CCOc1cc(S(=O)(=O)N2CCCC2)ccc1C1=N[C@@](C)(c2ccc(Cl)cc2)[C@@](C)(c2ccc(Cl)cc2)N1C(=O)N1CCN(CC(N)=O)CC1` [Example 35, 2-(4-{(4S,5R)-4,5-Bis-(4-chloro-phenyl)-2-[2-ethoxy-4-(pyrrolidine-1-sulfonyl)-phenyl]-4,5-dimethyl-4,5-dihydro-imidazole-1-carbonyl}-piperazin-1-yl)-acetamide], the IC50 was 17 nM.
